Test results reported in patent US20250116604A1, “FL[…] OF PERF[…] LIVING CULTURES OF A NEWLY ISOLATED P[…]. BACTERIUM” (The Government of the United States of America, as …, priority 2023, published 2025).

Tested on: Pseudomonas sp. CBR-F
Experiment: Fluorescent response of living Pseudomonas sp. CBR-F cultures to perfluoroalkyl substances
Format: cell-based
Settings: excitation 425 nm; for fluorescent response of Pseudomonas sp. CBR-F: R2A medium, 96 well plate, 12-16 hours at 30° C.; for fluorescent response of Pseudomonas sp. CBR-F / form of the fluorescence response versus concentration: emission 475 nm; for form of the fluorescence response versus concentration: log of concentration plotted against the measured fluorescence; for limit of detection: ppb (micrograms/liter), fluorescence at 475 nm
Procedure: To perform an assay, CBR-F was inoculated into medium containing Reasoner's 2A medium (R2A) diluted from a 2× stock with the test sample in a 96 well plate. Internal standards using PFOA are run each time as a calibration curve. Following incubation for a number of hours (for example, 12-16 hours at 30° C.), fluorescence was measured at 475 nm with an excitation of 425 nm after the cultures have grown with shaking at 150 rpm for 15 hours using a 96 well plate reader with fluorescent capabilities. The log of PFOA concentration is plotted against the measured fluorescence, and a linear trend is calculated. The trendline formula is used to calculate PFOA/PFOS concentrations in the sample.

Q: With `O=C(O)C(F)(F)C(F)(F)C(F)(F)C(F)(F)C(F)(F)C(F)(F)C(F)(F)F` [PFOA, perfluorooctanoic acid] as the compound, how does the “fluorescent response of Pseudomonas sp. CBR-F” value read?
A: produces fluorescence

Q: And the “form of the fluorescence response versus concentration” value?
A: linear relative to the log

Q: What about the limit of detection of the same compound?
A: 50 ppb

Q: How did the “fluorescent response of Pseudomonas sp. CBR-F” value turn out when `O=S(=O)(O)C(F)(F)C(F)(F)C(F)(F)C(F)(F)C(F)(F)C(F)(F)C(F)(F)C(F)(F)F` [PFOS, perfluorooctanesulfonic acid] was run?
A: produces fluorescence

Q: What about the “form of the fluorescence response versus concentration” value of the same compound?
A: linear relative to the log

Q: What about the limit of detection of the same compound?
A: 50 ppb
